Results: PMC11931445, “A Novel Compound QO‐83 Alleviates Acute and Chronic Epileptic Seizures in Rodents by Modulating KV7 Channel Activity” (CNS Neuroscience & Therapeutics, 2025)

Columns and labels:
KV7.1/KCNE1 channel = biological target: T1, KV7.1/KCNE1 channel (Homo sapiens, UniProt P51787); assay: Rb+ efflux high-throughput screening (ICR 8000); type: cell-based; settings: up to 100 μM, transient expression in HEK293 cells
T1 construct: expressed in transfected cells; host or cells: HEK293, transient expression
Experimental: Furthermore, the KV7.1 channel, which co-expresses with the auxiliary subunit KCNE1 to form slowly activated delayed rectifier potassium currents (IKs) during cardiac repolarization, was evaluated using the Rb^+ efflux high-throughput screening technique to determine the opening activity of QO-83 on the KCNQ1/E1 channel.
(§1) [picture] Figure S3: The activation effect of QO-83 on the KV7 channels was preliminarily verified by high-throughput screening. (A)High-throughput screening for KV7.2/7.3 stable expressed in CHO cells (n = 6). (B)High-throughput screening for KV7.4 stable expressed in HEK293 cells (n = 6). (C) High-throughput screening for KCNQ1/E1 transient expression in HEK293 cells (n = 6).
The high-throughput screening experiment utilizing the ICR 8000 rubidium ion elution method aimed to assess the sensitivity of QO-83 towards KV7.2/3 and KV7.1 channels. Cells in the logarithmic growth phase were seeded into 96-well plates at a density of 2×10^5 cells per well. Following overnight incubation, the medium was replaced with 200 μL of RBCL-loaded buffer and incubated under controlled conditions (5% CO2, 37°C) for 3 hours. The loading buffer composition consisted of 5.4 mM RbCl, 5 mM Glucose, 25 mM HEPES, 150 mM NaCl, 1 mM MgCl2, 0.8 mM NaH2PO4•2H2O, and 2 mM CaCl2. […]

KV7.4 = biological target: T2, KV7.4 (Homo sapiens, UniProt P56696); assay: Rb+ efflux high-throughput screening (ICR 8000); type: cell-based
T2 construct: expressed in transfected cells
Description: (§2) The activation effect of QO-83 on the KV7 channel was preliminarily verified using high-throughput screening methodologies.
as §1
(§3) The high-throughput screening experiment utilizing the ICR 8000 rubidium ion elution method aimed to assess the sensitivity of QO-83 towards KV7.2/3 and KV7.1 channels. Cells in the logarithmic growth phase were seeded into 96-well plates at a density of 2×10^5 cells per well. Following overnight incubation, the medium was replaced with 200 μL of RBCL-loaded buffer and incubated under controlled conditions (5% CO2, 37°C) for 3 hours. The loading buffer composition consisted of 5.4 mM RbCl, 5 mM Glucose, 25 mM HEPES, 150 mM NaCl, 1 mM MgCl2, 0.8 mM NaH2PO4•2H2O, and 2 mM CaCl2.
(§4) Subsequently, the solution was aspirated, and the cells were washed thrice with Washing Buffer (5.4 mM KCl, 25 mM HEPES, 150 mM NaCl, 1 mM MgCl2, 0.8 mM NaH2PO4•2H2O, 2 mM CaCl2). […] Each concentration was distributed across triplicate wells, with corresponding concentration solvent control wells included. […]

KV7.2/7.3 = biological target: T3, KV7.2/7.3 (Homo sapiens, UniProt O43525+O43526); assay: Rb+ efflux high-throughput screening (ICR 8000); type: cell-based
T3 construct: expressed in transfected cells
Description: as §2, §1, §3, §4

[1] = system: pilocarpine-induced seizures; assay: Pilocarpine-induced status epilepticus model with EEG; type: in vivo, Sprague–Dawley (SD) rats; settings: for effect on EEG power spectral density: pilocarpine-treated rats
Description: For animal experiments, we used adult male Sprague–Dawley (SD) rats weighing between 240 and 260 g. Isoflurane anesthesia was used for all operations. Rats were secured in a stereotaxic frame, and the anterior fontanelle was marked 3 mm posteriorly. Additionally, marks were made approximately 3 mm lateral to the midline on both sides to indicate the insertion points for the positive and negative electrodes. A ground electrode was placed subcutaneously in the occipital lobe to eliminate recording noise. Postoperatively, each animal was housed separately in a single cage and provided food and water ad libitum. After a 3‐day adaptation period, electroencephalograms (EEG) were recorded.
The experimental procedure commenced with an intraperitoneal injection of lithium chloride (127 mg/kg). After 24 h, subcutaneous scopolamine methyl nitrate (1 mg/kg) was administered. […] Twenty minutes later, status epilepticus (SE) was induced by administering pilocarpine (100 mg/kg, i.p.). SE was terminated 2 h later by administering 10% chloral hydrate.
The Pilo group, 2 mg/kg XE991 group, and 2 mg/kg XE991 + 1 mg/kg QO‐83 group received an intraperitoneal injection of lithium chloride (127 mg/kg) 24 h prior to testing. Following this, scopolamine methyl nitrate (1 mg/kg) was administered […], and after 10 min, each group was treated with 25% beta‐cyclodextrin, 2 mg/kg XE991, or 2 mg/kg XE991, respectively. After 15 min, 25% beta‐cyclodextrin, 25% beta‐cyclodextrin, or 1 mg/kg QO‐83 was administered. Finally, 25 min later, pilocarpine (100 mg/kg, i.p.) was administered to induce seizures.
Seizure severity was assessed using a standardized scale ranging from 1 to 5, adapted from previous research criteria. Stage 1 encompasses mouth and facial movements, including wet dog shakes. Stage 2 involves head nodding. Stage 3 is characterized by unilateral forelimb clonus. […] Finally, stage 5 manifests as clonus of all limbs accompanied by falling.

With CCOC(=O)Nc1ccc(NCc2ccc(F)cc2)cc1N [RTG, retigabine] as the molecule, how does the “opening activity on KV7.1/KCNE1 channel” value (KV7.1/KCNE1 channel) read?
Its value is “did not affect”.

What about the EC50 (KV7.4) of the same molecule?
Its EC50 is 1380 ± 310 nM.

What about the EC50 (KV7.2/7.3) of the same molecule?
The EC50 was 180 ± 70 nM.

And the “effect on epileptic behavior” value ([1]; 1 mg/kg i.p.)?
Its value is “could not rescue the epileptic behavior”.

And the “effect on EEG power spectral density” value ([1]; 1 mg/kg i.p.)?
The value was “did not exhibit effects equivalent”.

What about the “effect on latency of seizures” value ([1]; 10 mg/kg i.p.) of the same molecule?
The value was “significantly prolonged the latency of seizures”.

And the “effect on seizure grade” value ([1]; 10 mg/kg i.p.)?
Its value is “reduced the seizure grade”.

And the “effect on EEG power spectral density” value ([1]; 10 mg/kg i.p.)?
The value was “significantly inhibited the increase in EEG power spectral density”.
